Experimental findings from PMC12491701, “Discovery of an APP-selective BACE1 inhibitor for Alzheimer's disease” (Neurotherapeutics, 2025) are described below.

“Also recorded” adds a separate entry of the source.

In one test the target is T1, BACE2 (Homo sapiens, UniProt Q9Y5Z0).
T1 construct: purchased R&D Systems 4097-AS
T1 sequence (Q9Y5Z0 63-518): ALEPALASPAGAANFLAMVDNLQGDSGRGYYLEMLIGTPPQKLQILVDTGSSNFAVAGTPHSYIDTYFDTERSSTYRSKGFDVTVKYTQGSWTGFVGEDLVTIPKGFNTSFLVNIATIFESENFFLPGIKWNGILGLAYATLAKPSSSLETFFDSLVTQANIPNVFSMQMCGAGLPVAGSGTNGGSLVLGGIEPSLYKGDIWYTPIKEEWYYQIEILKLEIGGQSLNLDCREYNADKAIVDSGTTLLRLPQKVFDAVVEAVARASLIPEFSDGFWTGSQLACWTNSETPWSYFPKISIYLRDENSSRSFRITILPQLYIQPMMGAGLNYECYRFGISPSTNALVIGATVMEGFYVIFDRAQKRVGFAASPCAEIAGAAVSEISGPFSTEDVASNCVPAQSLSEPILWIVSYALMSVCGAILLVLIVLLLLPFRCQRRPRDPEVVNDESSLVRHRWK
Put plainly: BACE2 activity assay. It is filed as biochemical. On the procedure: The effects of candidate ASBIs on BACE2 activity was assessed using the R&D Systems BACE2 activity assay kit (Catalog #: 4097-AS and ES010) formatted from to the manufacturers. For the assay, 4 μL of assay buffer was added to each well, followed by 2 μL of BACE2 diluted in assay buffer to 10 ng/µL.
Then, 2 μL of inhibitor, at the appropriate concentrations were added to the wells and incubated for 30 minutes at room temperature. For all dilutions of inhibitor, drug stock solutions of 10 mM in DMSO were diluted to 50 μM in water; subsequent dilutions were in 0.5% DMSO. Afterwards, 2 μL of fluorogenic BACE2 substrate, diluted to 50 μM in assay buffer, were added to each well, after which the signal generated was read every 30 minutes at 25 °C for 2 hr (Fig S2).
FAH65 and its enantiomers at 10 mM in 100% DMSO was diluted in PBS pH 7.4 to 100, 10, 1, and 0.1 µM; plus, a vehicle-only control. The solutions were incubated at 37 °C for 90 min and centrifuged at 16K x g for 5 min. An aliquot of each supernatant was analyzed by LC-MS/MS. A standard curve was generated by plotting the known amount of analyte per standard in DMSO vs. chromatographic peak […]
Kinetic solubility (µM) was calculated using the trendline equation with maximum chromatographic peak area observed in the aqueous sample. (Table S3)
Liver microsome stability assay […]

The next test deals with T2, BACE1 cleavage of PSGL1 (Homo sapiens, UniProt P56817).
T2 construct: with or without full-length wild-type BACE1; expressed in transfected cells; host or cells: HEK293
Put plainly: PSGL1 assay (SEAP-PSGL1). It is filed as cell-based. Particulars: SEAP-PSGL1, HEK293.

T2 sequence (P56817 46-501): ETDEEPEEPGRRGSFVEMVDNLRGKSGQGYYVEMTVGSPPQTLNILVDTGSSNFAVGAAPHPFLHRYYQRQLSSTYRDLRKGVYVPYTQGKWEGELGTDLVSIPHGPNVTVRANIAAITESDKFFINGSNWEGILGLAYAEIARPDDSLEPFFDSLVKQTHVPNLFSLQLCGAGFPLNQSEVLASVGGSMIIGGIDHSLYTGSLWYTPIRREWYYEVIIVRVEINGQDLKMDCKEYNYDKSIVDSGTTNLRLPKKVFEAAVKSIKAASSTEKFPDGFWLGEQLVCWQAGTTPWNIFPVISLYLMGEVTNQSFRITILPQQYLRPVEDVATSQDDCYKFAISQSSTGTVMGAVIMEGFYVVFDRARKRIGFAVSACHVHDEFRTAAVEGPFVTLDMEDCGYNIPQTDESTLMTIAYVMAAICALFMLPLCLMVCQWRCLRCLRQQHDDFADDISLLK
Method for BACE1 cleavage of PSGL1: A cDNA construct encoding a human placental secreted alkaline phosphatase (SEAP)-PSGL1 (pAPtag5-PSGL1-β1) fusion protein was transfected in human embryonic kidney (HEK293) cells in a 6-well format with or without full-length wild-type BACE1 using Lipofectamine 2000 (Invitrogen). After 6–8 ​h transfection, the medium was replaced with DMEM containing the test compound at 10, 5, 1, 0.1 and 0.01 ​μM and 10 ​% heat-inactivated fetal bovine serum (FBS), and incubated for 24 ​h. SEAP activity was measured in the conditioned medium.

A word on the IC50: it is the midpoint of a concentration-inhibition curve. Higher therefore signals lower potency. As usually defined, the EC50 is the midpoint of the concentration-response curve. Higher therefore signals weaker potency. As for `Cc1cc(C2(c3cccc(-c4cncnc4)c3)N=C(N)N(C)C2=O)ccc1OC(F)F` (stereo not drawn) [FAH65], on BACE2, the IC50 was more than 1000 nM. The “inhibition of BACE2 activity” value on BACE2 (in words) is on record as “no inhibition; also recorded: did not inhibit”. In addition, the EC50 on BACE1 cleavage of PSGL1 was more than 10 µM.
